Source: the supplement of paper PMC13380429
Counter-ions that a name gives are not always drawn.

Columns and labels:
Conditions in all cases: 72 h
Caco-2 [1] = assay: cell viability relative to DMSO; higher = less toxic
Calu-3 [2] = assay: as above
U2OS [3] = assay: as above
Vero E6 [4] = assay: as above
Caco-2 [5] = assay: relative viability EC50 (midpoint between 100% and the lowest measured viability); higher = less toxic
Calu-3 [6] = assay: as above
U2OS [7] = assay: as above
Vero E6 [8] = assay: as above
Caco-2 [9] = assay: drug sensitivity score (DSS) for viability; higher = more toxic; extreme values may be limits of the assay
Calu-3 [10] = assay: as above
U2OS [11] = assay: as above
Vero E6 [12] = assay: as above
HepG2 [13] = assay: cell viability relative to DMSO; higher = less toxic
HepG2 [14] = assay: relative viability EC50 (midpoint between 100% and the lowest measured viability); higher = less toxic
HepG2 [15] = assay: drug sensitivity score (DSS) for viability; higher = more toxic; extreme values may be limits of the assay

SMILES | cell viability (Caco-2 [1]; 1 nM) | cell viability (Caco-2 [1]; 10 nM) | cell viability (Caco-2 [1]; 100 nM) | cell viability (Caco-2 [1]; 1000 nM) | cell viability (Caco-2 [1]; 10000 nM) | cell viability (Calu-3 [2]; 1 nM) | cell viability (Calu-3 [2]; 10 nM) | cell viability (Calu-3 [2]; 100 nM) | cell viability (Calu-3 [2]; 1000 nM) | cell viability (Calu-3 [2]; 10000 nM) | cell viability (U2OS [3]; 1 nM) | cell viability (U2OS [3]; 10 nM) | cell viability (U2OS [3]; 100 nM) | cell viability (U2OS [3]; 1000 nM) | cell viability (U2OS [3]; 10000 nM) | cell viability (Vero E6 [4]; 1 nM) | cell viability (Vero E6 [4]; 10 nM) | cell viability (Vero E6 [4]; 100 nM) | cell viability (Vero E6 [4]; 1000 nM) | cell viability (Vero E6 [4]; 10000 nM) | relative viability EC50 (Caco-2 [5]) | relative viability EC50 (Calu-3 [6]) | relative viability EC50 (U2OS [7]) | relative viability EC50 (Vero E6 [8]) | drug sensitivity score (Caco-2 [9]) | drug sensitivity score (Calu-3 [10]) | drug sensitivity score (U2OS [11]) | drug sensitivity score (Vero E6 [12]) | cell viability (HepG2 [13]; 1 nM) | cell viability (HepG2 [13]; 10 nM) | cell viability (HepG2 [13]; 100 nM) | cell viability (HepG2 [13]; 1000 nM) | cell viability (HepG2 [13]; 10000 nM) | relative viability EC50 (HepG2 [14]) | drug sensitivity score (HepG2 [15])
COCCOC(=O)C1=C(C)NC(C)=C(C(=O)OC(C)C)C1c1cccc([N+](=O)[O-])c1 (configuration not stated) [nimodipine] | 98.4% | 93.4% | 87.8% | 98.1% | 91.5% | 101% | 98.2% | 104% | 96.7% | 97.8% | 97.2% | 97.8% | 104% | 97.8% | 95.9% | 98.6% | 100% | 103% | 102% | 88.1% | > 10 µM | > 10 µM | > 10 µM | > 10 µM | 0 | 0 | 0 | 0 | – | – | – | – | – | – | –
O=C1C(Cl)=C(N2CCOCC2)C(=O)N1c1ccc(Cl)c(Cl)c1 [RI-1] | 97.2% | 94.9% | 93.2% | 106% | 110% | – | – | – | – | – | 89.2% | 97.2% | 96.8% | 96.7% | 101% | 102% | 95.5% | 97.7% | 97.1% | 107% | > 10 µM | – | > 10 µM | > 10 µM | 0 | – | 0 | 0 | 98.9% | 107% | 103% | 97.3% | 98.6% | > 10 µM | 0
CC(C)[C@H](CO)Nc1nc(Nc2cc(N)cc(Cl)c2)c2ncn(C(C)C)c2n1 [aminopurvalanol-a] | 101% | 97% | 98.5% | 100% | 38.2% | 98.4% | 87.7% | 101% | 99.3% | 47% | 94% | 99.7% | 101% | 96.5% | 34% | 99.7% | 102% | 96.9% | 95.3% | 53.3% | 3.2 µM | 3.07 µM | 2.75 µM | – | 3.3 | 2.9 | 4.1 | 3.2 | 101% | 99.3% | 93.8% | 105% | 34.6% | 3.54 µM | 3.2
COc1ccc(CNC(=O)/C=C/c2ccc3[nH]cc(CCN(C)C)c3c2)cc1 | 106% | 95% | 93.8% | 96.6% | 98.7% | – | – | – | – | – | 102% | 97.4% | 98.1% | 98.9% | 99.3% | 98.5% | 98% | 101% | 101% | 102% | > 10 µM | – | > 10 µM | > 10 µM | 0 | – | 0 | 0 | 107% | 90.6% | 93.5% | 94% | 96.8% | > 10 µM | 0
CC(CCc1ccccc1)NC(C)C(O)c1ccc(O)cc1 (configuration not stated) [buphenine] | 90.4% | 102% | 92.2% | 92.5% | 90% | 108% | 106% | 99.3% | 104% | 110% | 101% | 100% | 100% | 94.6% | 99.1% | – | – | – | – | – | > 10 µM | > 10 µM | > 10 µM | – | 0 | 0 | 0 | – | 98.8% | 100% | 95.9% | 89.7% | 91.3% | > 10 µM | 0.1
Cc1c(OCC(F)(F)F)ccnc1C[S+]([O-])c1nc2ccccc2[nH]1 (configuration not stated) [lansoprazole] | 99.7% | 94.3% | 96.6% | 97% | 92.6% | 93.1% | 107% | 95.1% | 107% | 92.3% | 94.8% | 101% | 93% | 93.8% | 93.8% | – | – | – | – | – | > 10 µM | > 10 µM | > 10 µM | – | 0 | 0 | 0 | – | 104% | 96.8% | 96.1% | 92.1% | 96.5% | > 10 µM | 0
CN[C@H](CC(C)C)C(=O)N[C@H]1C(=O)N[C@@H](CC(N)=O)C(=O)N[C@H]2C(=O)N[C@H]3C(=O)N[C@H](C(=O)N[C@H](C(=O)O)c4cc(O)cc(O)c4-c4cc3ccc4O)[C@H](O)c3ccc(c(Cl)c3)Oc3cc2cc(c3O[C@@H]2O[C@H](CO)[C@@H](O)[C@H](O)[C@H]2O[C@H]2C[C@](C)(N)[C@H](O)[C@H](C)O2)Oc2ccc(cc2Cl)[C@H]1O [VANCOMYCIN HYDROCHLORIDE] | 80.7% | 92.2% | 94.9% | 99.8% | 100% | – | – | – | – | – | 99.7% | 95.6% | 97.4% | 101% | 106% | 98.1% | 99.5% | 98.3% | 98.5% | 104% | > 10 µM | – | > 10 µM | > 10 µM | 0 | – | 0 | 0 | 93.7% | 105% | 105% | 96.4% | 125% | > 10 µM | 0
